Test results published in paper PMC5783947 (2018).

Key:
[1] = test system: add riboswitch aptamer (RNA, riboswitch) CAACGCUUCAUAUAAUCCUAAUGAUAUGGUUUGGGAGUUUCUACCAAGAGCCUUAAACUCUUGAUUAUGAAGUCUGUCGCUUUAUCC; assay: ACE-Scan microarray, ligand-induced duplex dissociation; settings: 130 mM KCl, 12 mM MgCl2; 50 mM Tris, pH 7.5, 23 °C; 4 mM adenine; array-bound ACEs displaced; weaker at lower Mg2+ or 10 °C
[2] = test system: ATP RNA aptamer (RNA, aptamer) CUUGGGUUGGGAAGAAACUGUGGCACUUCGGUGCCAGCAACCCCAU; assay: as above; settings: 300 mM NaCl, 5 mM MgCl2; 20 mM Tris, pH 7.6, room temperature; 10 mM ATP; array-bound ACEs displaced
[3] = test system: ATP DNA aptamer (with 5' extension) (DNA, aptamer) TCACTGACCTGGGGGAGTATTGCGGAGGAAGGT; assay: solution FRET dose-response, quencher strand displacement; settings: 300 mM NaCl, 5 mM MgCl2; 20 mM Tris, pH 8.3, 0.1% Tween-20, 22.5 °C; BHQ-2 ACEs 5'Q-2T:9, 5'Q4T:10, 5'Q4T:12:6G, 5'Q1A:15, 5'Q-5C:9 displaced

Row | SMILES | binding [1] | binding [2] | binding [3]
1 | Nc1ncnc2[nH]cnc12 | yes |  | 
2 | Nc1ncnc2c1ncn2[C@@H]1O[C@H](COP(=O)(O)OP(=O)(O)OP(=O)(O)O)[C@@H](O)[C@H]1O |  | yes | yes
